Measurements: US20190292524A1, “METHODS FOR CANCER STEM CELL (CSC) EXPANSION” (TRANSGENEX NANOBIOTECH, INC., priority 2016, published 2019)

System: MCF-7 cells
Assay: CD44+ CD24− CSC population in MCF-7 tumoroids by flow cytometry
Format: cell-based, human
Conditions: regular growth medium supplemented with 50 μM cobalt chloride, first-generation MCF-7 tumoroids, day 6
Protocol: We first plated MCF-7 cells in regular growth medium, consisting of RPMI-1640 supplemented with 10% fetal bovine serum (FBS) and 1× penicillin-streptomycin. The cells were plated at ^˜7,000 cells per scaffold in a 96-well cell culture plate. Fresh medium was added on the second day post-seeding and on day 6 post-seeding, the tumoroids were visualized using NucBlue® dye. After confirming the presence of healthy looking tumoroids, they were detached from the scaffold and processed for single cell suspensions using accutase:citrate solution (1:1 ratio). The single cell suspension was then counted for viability and stained with human anti-CD44-APC-cy7 and anti-CD24-APC. DAPI was used to differentiate the live cells within the single cell population and the CD44^+ CD24^− cell population was determined from the live cells using flow cytometry.
We first grew first-generation tumoroids, as described before. The first-generation tumoroids were then processed for single-cell suspensions and plated at ^˜8,000 cells per scaffold in a 96-well cell culture plate. […]
Because hypoxia appears to be required for the maintenance of CSCs, we wanted to test this in our 3D model using cobalt chloride, a known inducer of hypoxia. […] DAPI was used to differentiate the live cells within the single-cell population and the CD44^+ CD24^− cell population was determined using flow cytometry. […]

Structure (SMILES): [Cl][Co][Cl] [cobalt chloride]
- change in percentage of CSCs: did not change the percentage of CSCs
